Reference: PMC11859264, “Discovery of a Novel Multitarget Analgesic Through an In Vivo-Guided Approach” (Pharmaceuticals, 2025)

Each compound was assayed on formalin model (assay: Formalin test in mice (primary in vivo screening and ED50)). Conditions: Mus musculus, ip; mice, intraperitoneal, doses 0.1, 1, 5 and 10 mg/kg, second phase; read-out: ED50 in the second phase of the formalin model.
Set-up: species or system ICR male mice
Procedure: For primary screening, the synthesized compounds were administered to mice via intraperitoneal injection at a dose of 5 mg/kg using the formalin model. The percentage inhibition in the second phase, relative to the vehicle control (DMSO/cremophor EL/distilled water = 10:10:80), was calculated.
Each compound was assessed using four doses (0.1, 1, 5, and 10 mg/kg) by intraperitoneal injection.
ICR male mice weighing 23–25 g was purchased from Samtako Korea (Osan, Republic of Korea). ICR mice were housed four per cage in a room with 12 h light–dark cycles. The temperature and relative humidity of the room were maintained at 22 ± 2 °C and 50 ± 5%, respectively. Food and water were available ad libitum. The procedures for animal testing were approved by Medifron Animal Care and Use Committees (Approval number; Medifron 2019-9). Efforts were made to minimize animal suffering and to reduce the number of animals used.
Mice were randomly assigned to five groups (four per group) and single-dose drugs were administered by intraperitoneal injection. The formalin-induced licking paw test was modified from the method described by Dubuisson and Dennis. Each mouse was acclimated to an acrylic observation chamber for at least 30 min before the injection of formalin. Twenty microliters of 2% formalin were injected subcutaneously into the right side of the hind paw. Each mouse was then placed in an individual clear plastic observational chamber (15 × 15 × 15 cm, volume = […] or 3.375 L), and the pain response was recorded for a period of 30 min. The summation of time (in seconds) spent in licking and biting responses of the injected paw during each 5 min block was measured as an indicator of the pain response. The first period (early phase) was recorded 0–5 min after the injection of formalin, and the second period (late phase) was recorded 20–30 min after the injection. The test compound was administered intraperitoneally 30 min before the formalin injection at […]: 0.1, 1, 5, and 10 mg/kg. The vehicle was DMSO/Cremophor EL/distilled water (10/10/80). The data were expressed as the mean ± standard error of the mean (SEM). Statistical analysis was assessed by one-way analysis of variance (ANOVA) with Bonferroni’s post hoc test. Statistical significance was set at p-value < 0.05, with values of p <0.001 considered highly significant.
With `N#Cc1ccc2[nH]cc(C(=O)NCCN3CCN(c4cccc(Cl)c4)CC3)c2c1` [Compound 21, N-(2-(4-(3-Chlorophenyl)piperazin-1-yl)ethyl)-5-cyano-1H-indole-3-carboxamide] the ED50 was 2.3 mg/kg.
`N#Cc1ccc2[nH]cc(C(=O)NCCN3CCN(c4cccc(C(F)(F)F)c4)CC3)c2c1` [Compound 22, 5-Cyano-N-(2-(4-(3-(trifluoromethyl)phenyl)piperazin-1-yl)ethyl)-1H-indole-3-carboxamide] was tested, and the ED50 was 1.3 mg/kg.
Work on `Cc1ccc(Sc2ccccc2N2CCN(CCNC(=O)c3c[nH]c4ccc(C#N)cc34)CC2)c(C)c1` [Compound 31, 5-Cyano-N-(2-(4-(2-((2,4-dimethylphenyl)thio)phenyl)piperazin-1-yl)ethyl)-1H-indole-3-carboxamide] yielded an ED50 of 2.66 mg/kg.
`N#Cc1ccc2[nH]cc(C(=O)NCCCN3CCN(c4cccc(Cl)c4)CC3)c2c1` [Compound 37, N-(3-(4-(3-Chlorophenyl)piperazin-1-yl)propyl)-5-cyano-1H-indole-3-carboxamide] was tested, and the ED50 was 3.2 mg/kg.
Work on `N#Cc1ccc2[nH]cc(C(=O)NCCCN3CCN(c4ccc5ccccc5n4)CC3)c2c1` [Compound 45, 5-Cyano-N-(3-(4-(quinolin-2-yl)piperazin-1-yl)propyl)-1H-indole-3-carboxamide] yielded an ED50 of 0.93 mg/kg.

Same assay, conditions: mice, 5 mg/kg intraperitoneal, second phase
In the case of `N#Cc1ccc2[nH]cc(C(=O)NCCN3CCN(c4cccc(F)c4)CC3)c2c1` [Compound 20, 5-Cyano-N-(2-(4-(3-fluorophenyl)piperazin-1-yl)ethyl)-1H-indole-3-carboxamide], the “% Inhibition in the second phase of the formalin model relative to vehicle control” value is reported as 3.1%.
With `N#Cc1ccc2[nH]cc(C(=O)NCCN3CCN(c4ccc(F)cc4)CC3)c2c1` [Compound 23, 5-Cyano-N-(2-(4-(4-fluorophenyl)piperazin-1-yl)ethyl)-1H-indole-3-carboxamide] the “% Inhibition in the second phase of the formalin model relative to vehicle control” value was 35.8%.
`N#Cc1ccc2[nH]cc(C(=O)NCCN3CCN(c4ccc(Cl)cc4)CC3)c2c1` [Compound 24, N-(2-(4-(4-Chlorophenyl)piperazin-1-yl)ethyl)-5-cyano-1H-indole-3-carboxamide] was tested, and the “% Inhibition in the second phase of the formalin model relative to vehicle control” value was 1.6%.
In the case of `N#Cc1ccc2[nH]cc(C(=O)NCCN3CCN(c4ccc(C(F)(F)F)cc4)CC3)c2c1` [Compound 25, 5-Cyano-N-(2-(4-(4-(trifluoromethyl)phenyl)piperazin-1-yl)ethyl)-1H-indole-3-carboxamide], the “% Inhibition in the second phase of the formalin model relative to vehicle control” value is reported as 19.8%.
For `N#Cc1ccc2[nH]cc(C(=O)NCCN3CCN(c4cccc(C(F)(F)F)n4)CC3)c2c1` [Compound 26, 5-Cyano-N-(2-(4-(6-(trifluoromethyl)pyridin-2-yl)piperazin-1-yl)ethyl)-1H-indole-3-carboxamide], the “% Inhibition in the second phase of the formalin model relative to vehicle control” value was 48.6%.
In the case of `N#Cc1ccc2[nH]cc(C(=O)NCCN3CCN(c4ncccc4Cl)CC3)c2c1` [Compound 27, N-(2-(4-(3-Chloropyridin-2-yl)piperazin-1-yl)ethyl)-5-cyano-1H-indole-3-carboxamide], the “% Inhibition in the second phase of the formalin model relative to vehicle control” value is reported as 48.0%.
`N#Cc1ccc2[nH]cc(C(=O)NCCN3CCN(c4ccc5oc(C(N)=O)cc5c4)CC3)c2c1` [Compound 30, N-(2-(4-(2-Carbamoylbenzofuran-5-yl)piperazin-1-yl)ethyl)-5-cyano-1H-indole-3-carboxamide] was tested, and the “% Inhibition in the second phase of the formalin model relative to vehicle control” value was 23.8%.
`N#Cc1ccc2[nH]cc(C(=O)NCCN3CCN(c4nsc5ccccc45)CC3)c2c1` [Compound 32, N-(2-(4-(Benzo[d]isothiazol-3-yl)piperazin-1-yl)ethyl)-5-cyano-1H-indole-3-carboxamide] was tested, and the “% Inhibition in the second phase of the formalin model relative to vehicle control” value was 14.3%.
In the case of `N#Cc1ccc2[nH]cc(C(=O)NCCN3CCN(C(=O)c4ccc(F)cc4)CC3)c2c1` [Compound 33, 5-Cyano-N-(2-(4-(4-fluorobenzoyl)piperazin-1-yl)ethyl)-1H-indole-3-carboxamide], the “% Inhibition in the second phase of the formalin model relative to vehicle control” value is reported as 24.2%.
In the case of `N#Cc1ccc2[nH]cc(C(=O)NCCN3CCN(C(=O)c4cccc(C(F)(F)F)c4)CC3)c2c1` [Compound 34, 5-Cyano-N-(2-(4-(3-(trifluoromethyl)benzoyl)piperazin-1-yl)ethyl)-1H-indole-3-carboxamide], the “% Inhibition in the second phase of the formalin model relative to vehicle control” value is reported as 2.1%.
In the case of `N#Cc1ccc2[nH]cc(C(=O)NCCN3CCN(C(=O)C4COc5ccccc5O4)CC3)c2c1` (stereo not shown) [Compound 35, 5-Cyano-N-(2-(4-(2,3-dihydrobenzo[b][1,4]dioxine-2-carbonyl)piperazin-1-yl)ethyl)-1H-indole-3-carboxamide], the “% Inhibition in the second phase of the formalin model relative to vehicle control” value is reported as 0.4%.
`N#Cc1ccc2[nH]cc(C(=O)NCCCN3CCN(c4cccc(C(F)(F)F)c4)CC3)c2c1` [Compound 38, 5-Cyano-N-(3-(4-(3-(trifluoromethyl)phenyl)piperazin-1-yl)propyl)-1H-indole-3-carboxamide] was tested, and the “% Inhibition in the second phase of the formalin model relative to vehicle control” value was 37.1%.
In the case of `N#Cc1ccc2[nH]cc(C(=O)NCCCN3CCN(c4ccc(Cl)cc4)CC3)c2c1` [Compound 40, N-(3-(4-(4-Chlorophenyl)piperazin-1-yl)propyl)-5-cyano-1H-indole-3-carboxamide], the “% Inhibition in the second phase of the formalin model relative to vehicle control” value is reported as 4.7%.
In the case of `N#Cc1ccc2[nH]cc(C(=O)NCCCN3CCN(c4ccc(C(F)(F)F)cc4)CC3)c2c1` [Compound 41, 5-Cyano-N-(3-(4-(4-(trifluoromethyl)phenyl)piperazin-1-yl)propyl)-1H-indole-3-carboxamide], the “% Inhibition in the second phase of the formalin model relative to vehicle control” value is reported as 16.5%.
For `N#Cc1ccc2[nH]cc(C(=O)NCCCN3CCN(c4cccc(C(F)(F)F)n4)CC3)c2c1` [Compound 42, 5-Cyano-N-(3-(4-(6-(trifluoromethyl)pyridin-2-yl)piperazin-1-yl)propyl)-1H-indole-3-carboxamide], the “% Inhibition in the second phase of the formalin model relative to vehicle control” value was 45.7%.
For `N#Cc1ccc2[nH]cc(C(=O)NCCCN3CCN(c4ncccc4Cl)CC3)c2c1` [Compound 43, N-(3-(4-(3-Chloropyridin-2-yl)piperazin-1-yl)propyl)-5-cyano-1H-indole-3-carboxamide], the “% Inhibition in the second phase of the formalin model relative to vehicle control” value was 45.3%.
With `N#Cc1ccc2[nH]cc(C(=O)NCCCN3CCN(c4ncccc4C(F)(F)F)CC3)c2c1` [Compound 44, 5-Cyano-N-(3-(4-(3-(trifluoromethyl)pyridin-2-yl)piperazin-1-yl)propyl)-1H-indole-3-carboxamide] the “% Inhibition in the second phase of the formalin model relative to vehicle control” value was 3.7%.
In the case of `N#Cc1ccc2[nH]cc(C(=O)NCCCN3CCN(c4ccc5oc(C(N)=O)cc5c4)CC3)c2c1` [Compound 46, N-(3-(4-(2-Carbamoylbenzofuran-5-yl)piperazin-1-yl)propyl)-5-cyano-1H-indole-3-carboxamide], the “% Inhibition in the second phase of the formalin model relative to vehicle control” value is reported as 49.2%.
`N#Cc1ccc2[nH]cc(C(=O)NCCCN3CCN(C(=O)c4ccc(F)cc4)CC3)c2c1` [Compound 49, 5-Cyano-N-(3-(4-(4-fluorobenzoyl)piperazin-1-yl)propyl)-1H-indole-3-carboxamide] was tested, and the “% Inhibition in the second phase of the formalin model relative to vehicle control” value was 20.3%.
`N#Cc1ccc2[nH]cc(C(=O)NCCCN3CCN(C(=O)c4cccc(C(F)(F)F)c4)CC3)c2c1` [Compound 50, 5-Cyano-N-(3-(4-(3-(trifluoromethyl)benzoyl)piperazin-1-yl)propyl)-1H-indole-3-carboxamide] was tested, and the “% Inhibition in the second phase of the formalin model relative to vehicle control” value was 2.9%.
